pKi: −log10 of the molar value. Counter-ions that a name gives are not always drawn.
The compounds below were run against T1, MASP-2 (CCP1-CCP2-SP) (Homo sapiens, UniProt O00187) (assay: Enzymatic Assay for MASP-2 (fluorogenic substrate)). Conditions: fluorogenic substrate based on C2 cleavage site; room temperature, 20 min; 20 mM HEPES pH 7.4, 140 mM NaCl, 0.1% Tween 20.
T1 construct: 15 μL of Enzyme MASP-2 (CCP1-CCP2-SP) in Assay Buffer
Format: biochemical
Outline: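 Fluorogenic substrate built on the C2 cleavage site, in 20 mM HEPES pH 7.4, 140 mM NaCl, 0.1% Tween 20, run at room temperature for 20 min before an acetic acid stop. Fluorescence normalised to DMSO-only and no-enzyme controls; IC50 taken as equivalent to Ki, with tight- or slow-binding inhibitors treated separately.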

T1 sequence (O00187 445-686 limits assumed): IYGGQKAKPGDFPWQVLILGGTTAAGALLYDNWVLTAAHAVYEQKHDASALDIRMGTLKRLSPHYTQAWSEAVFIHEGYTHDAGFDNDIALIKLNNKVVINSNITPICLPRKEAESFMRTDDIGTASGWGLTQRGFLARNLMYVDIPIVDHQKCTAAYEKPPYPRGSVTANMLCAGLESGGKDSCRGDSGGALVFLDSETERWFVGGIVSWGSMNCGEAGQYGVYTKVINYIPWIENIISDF
T1 sequence (O00187 298-444 partner limits assumed): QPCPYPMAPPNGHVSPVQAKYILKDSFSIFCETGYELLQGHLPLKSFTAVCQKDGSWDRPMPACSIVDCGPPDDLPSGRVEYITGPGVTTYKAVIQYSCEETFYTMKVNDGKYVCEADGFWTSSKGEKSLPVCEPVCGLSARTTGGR

pKi | SMILES
> 6.30 | C[C@H](NC(=O)[C@H]1C[C@@H](c2ccccc2)CCN1CCP(=O)(O)O)C(=O)NCc1ccc(C(=N)N)cc1 [Compound I-38, (2-((2R,4S)-2-(((S)-1-((4-Carbamimidoylbenzyl)Amino)-1-Oxopropan-2-Yl)Carbamoyl)-4-Phenylpiperidin-1-Yl)Ethyl)Phosphonic Acid Di-Trifluoroacetate]
> 6.30 | C[C@H](NC(=O)[C@H]1C[C@H](Cc2cccc(C(=O)O)c2)CN1)C(=O)NCc1ccc(C(=N)N)cc1 [Compound I-55, 3-(((3S,5R)-5-(((S)-1-((4-Carbamimidoylbenzyl)Amino)-1-Oxopropan-2-Yl)Carbamoyl)Pyrrolidin-3-Yl)Methyl)Benzoic Acid Di-Trifluoroacetate]

Further lines, the compound ahead of its results:

SMILES | pKi
C[C@H](NC(=O)[C@H]1C[C@H](Cc2ccc(F)c(Cl)c2)CN1CCC(=O)O)C(=O)NCc1ccc(C(=N)N)cc1 [Compound I-36, 3-((2R,4S)-2-(((S)-1-((4-Carbamimidoylbenzyl)Amino)-1-Oxopropan-2-Yl)Carbamoyl)-4-(3-Chloro-4-Fluorobenzyl)Pyrrolidin-1-Yl)Propanoic Acid Di-Trifluoroacetate] | > 6.30
C[C@H](NC(=O)[C@H]1C[C@H](Oc2ccccc2)CN1)C(=O)NCc1ccc(C(=N)N)cc1 [Compound I-96, (2R,4S)—N—((S)-1-((4-Carbamimidoylbenzyl)amino)-1-oxopropan-2-yl)-4-phenoxypyrrolidine-2-carboxamide di-trifluoroacetate] | > 6.30
Cc1nc(N)ccc1CNC(=O)[C@H](C)NC(=O)[C@H]1C[C@H](Cc2ccc(F)c(Cl)c2F)CN1 [Compound I-88, (2R,4S)—N—((S)-1-(((6-Amino-2-Methylpyridin-3-Yl)Methyl)Amino)-1-Oxopropan-2-Yl)-4-(3-Chloro-2,4-Difluorobenzyl)Pyrrolidine-2-Carboxamide Dihydrochloride] | > 6.30
CCOC(=O)CCN1CC[C@H](c2ccccc2)C[C@@H]1C(=O)N[C@@H](C)C(=O)NCc1cc(Cl)ccc1-n1cnnn1 [Compound I-28, Ethyl 3-((2R,4S)-2-(((S)-1-((5-Chloro-2-(1H-Tetrazol-1-Yl)Benzyl)Amino)-1-Oxopropan-2-Yl)Carbamoyl)-4-Phenylpiperidin-1-Yl)Propanoate] | 5.00 to 5.60
